# Laboratory results reported in patent US11078170B2 (Assembly Biosciences, Inc., priority 2017, dated 2021).
# pEC50: −log10 of the molar value.
# System: HBV viral production from HepAD38 cells
# Experiment: Activity of test compounds on viral production from HepAD38 cells (viral load by qPCR of HBV core sequence in supernatant)
# Format: cell-based
# Conditions: Hepatitis B virus, 120 h, 5 days incubation, HBV DNA in supernatant by qPCR, top concentration 10 μM, read-out: Viral Load EC50 Activity range
# In short: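 EC50 and CC50 come from four-parameter fits of supernatant viral load and CellTiter-Glo viability, respectively. Viral load was measured by core-region TaqMan qPCR against HBV DNA standards and compared with DMSO controls. Tet-free HepAD38 cells (50,000/well, 2% FBS) were exposed to compound, highest 10 μM, for 5 days at 37° C.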
row,Compound,pEC50
1,"CN1[C@@H](C(=O)Nc2ccc(F)c(Cl)c2)C[C@@H](c2ccc(-c3ccc(F)cn3)s2)NS1(=O)=O [HBV-CSU-242-ISO-II, Cis-N-(3-chloro-4-fluorophenyl)-5-(5-(5-fluoropyridin-2-yl)thiophen-2-yl)-2-methyl-1,2,6-thiadiazinane-3-carboxamide 1,1-dioxide]",< 5.30
2,CN1[C@@H](C(=O)Nc2ccc(F)c(Cl)c2)C[C@@H](c2ccc(-c3cn[nH]c3)s2)NS1(=O)=O [HBV-CSU-244-ISO-II],> 6.00
3,CN1[C@H](C(=O)Nc2ccc(F)c(Cl)c2)C[C@H](c2ccc(-c3cn[nH]c3)s2)NS1(=O)=O [HBV-CSU-244-ISO-I],> 6.00
4,CN1C(C(=O)Nc2ccc(F)c(Cl)c2)CC(c2ccc(-c3cn[nH]c3)s2)NS1(=O)=O (stereo not drawn) [HBV-CSU-244],> 6.00
5,CN1[C@@H](C(=O)Nc2ccc(F)c(Cl)c2)C[C@@H](c2cc(-c3cn[nH]c3)cs2)NS1(=O)=O [HBV-CSU-245-ISO-II],> 6.00
6,CN1[C@H](C(=O)Nc2ccc(F)c(Cl)c2)C[C@H](c2cc(-c3cn[nH]c3)cs2)NS1(=O)=O [HBV-CSU-245-ISO-I],> 6.00
7,CN1C(C(=O)Nc2ccc(F)c(Cl)c2)CC(c2cc(-c3cn[nH]c3)cs2)NS1(=O)=O (stereo not drawn) [HBV-CSU-245],> 6.00
8,"CN1[C@H](C(=O)Nc2ccc(F)c(Cl)c2)C[C@H](c2ccc(-c3cnn(C)c3)cc2)NS1(=O)=O [HBV-CSU-246-ISO-II, Cis-N-(3-Chloro-4-fluorophenyl)-2-methyl-5-(4-(1-methyl-1H-pyrazol-4-yl)phenyl)-1,2,6-thiadiazinane-3-carboxamide 1,1-dioxide]",> 6.00
9,"CN1[C@H](C(=O)Nc2ccc(F)c(Cl)c2)C[C@H](c2cccc(-c3cnn(C)c3)c2)NS1(=O)=O [HBV-CSU-247-ISO-I, Cis-N-(3-chloro-4-fluorophenyl)-2-methyl-5-(3-(1-methyl-1H-pyrazol-4-yl)phenyl)-1,2,6-thiadiazinane-3-carboxamide 1,1-dioxide]",< 5.30
10,"CN1[C@@H](C(=O)Nc2ccc(F)c(Cl)c2)C[C@@H](c2cccc(-c3cnn(C)c3)c2)NS1(=O)=O [HBV-CSU-247-ISO-II, Cis-N-(3-chloro-4-fluorophenyl)-2-methyl-5-(3-(1-methyl-1H-pyrazol-4-yl)phenyl)-1,2,6-thiadiazinane-3-carboxamide 1,1-dioxide]",> 6.00
11,"CN1[C@H](C(=O)Nc2ccc(F)c(Cl)c2)C[C@H](c2ncc(-c3ccc(F)cc3)s2)NS1(=O)=O [HBV-CSU-248-ISO-I, Cis-N-(3-Chloro-4-fluorophenyl)-5-(5-(4-fluorophenyl)thiazol-2-yl)-2-methyl-1,2,6-thiadiazinane-3-carboxamide 1,1-dioxide]",> 6.00
12,"CN1[C@@H](C(=O)Nc2ccc(F)c(Cl)c2)C[C@@H](c2ncc(-c3ccc(F)cc3)s2)NS1(=O)=O [HBV-CSU-248-ISO-II, Cis-N-(3-Chloro-4-fluorophenyl)-5-(5-(4-fluorophenyl)thiazol-2-yl)-2-methyl-1,2,6-thiadiazinane-3-carboxamide 1,1-dioxide]",< 5.30
13,"COc1ccc(-c2cnc([C@H]3C[C@@H](C(=O)Nc4ccc(F)c(Cl)c4)N(C)S(=O)(=O)N3)s2)cc1 [HBV-CSU-250-ISO-I, Cis-N-(3-Chloro-4-fluorophenyl)-5-(5-(4-methoxyphenyl)thiazol-2-yl)-2-methyl-1,2,6-thiadiazinane-3-carboxamide 1,1-dioxide]",> 6.00
14,"COc1ccc(-c2cnc([C@@H]3C[C@H](C(=O)Nc4ccc(F)c(Cl)c4)N(C)S(=O)(=O)N3)s2)cc1 [HBV-CSU-250-ISO-II, Cis-N-(3-Chloro-4-fluorophenyl)-5-(5-(4-methoxyphenyl)thiazol-2-yl)-2-methyl-1,2,6-thiadiazinane-3-carboxamide 1,1-dioxide]",5.30 to 6.00
15,"CN1[C@H](C(=O)Nc2ccc(F)c(Cl)c2)C[C@H](c2ncc(-c3ccc(F)cn3)s2)NS1(=O)=O [HBV-CSU-252-ISO-I, Cis-N-(3-Chloro-4-fluorophenyl)-5-(5-(5-fluoropyridin-2-yl)thiazol-2-yl)-2-methyl-1,2,6-thiadiazinane-3-carboxamide 1,1-dioxide]",> 6.00
16,"CN1[C@@H](C(=O)Nc2ccc(F)c(Cl)c2)C[C@@H](c2ncc(-c3ccc(F)cn3)s2)NS1(=O)=O [HBV-CSU-252-ISO-II, Cis-N-(3-Chloro-4-fluorophenyl)-5-(5-(5-fluoropyridin-2-yl)thiazol-2-yl)-2-methyl-1,2,6-thiadiazinane-3-carboxamide 1,1-dioxide]",< 5.30
17,"CN1[C@H](C(=O)Nc2ccc(F)c(Cl)c2)C[C@H](c2ncc(-c3cn[nH]c3)s2)NS1(=O)=O [HBV-CSU-254-ISO-I, Cis-5-(5-(1H-pyrazol-4-yl)thiazol-2-yl)-N-(3-chloro-4-fluorophenyl)-2-methyl-1,2,6-thiadiazinane-3-carboxamide 1,1-dioxide]",> 6.00

row,Compound,pEC50
1,"CN1[C@@H](C(=O)Nc2ccc(F)c(Cl)c2)C[C@@H](c2ncc(-c3cn[nH]c3)s2)NS1(=O)=O [HBV-CSU-254-ISO-II, Cis-5-(5-(1H-pyrazol-4-yl)thiazol-2-yl)-N-(3-chloro-4-fluorophenyl)-2-methyl-1,2,6-thiadiazinane-3-carboxamide 1,1-dioxide]",5.30 to 6.00
2,"COC(=O)c1ccc(C2CC(C(=O)Nc3ccc(F)c(Cl)c3)N(C)S(=O)(=O)N2)cc1 (stereo not drawn) [HBV-CSU-256, Cis-methyl 4-(5-((3-chloro-4-fluorophenyl)carbamoyl)-6-methyl-1,1-dioxido-1,2,6-thiadiazinan-3-yl)benzoate]",5.30 to 6.00
3,"CN1C(C(=O)Nc2ccc(F)c(Br)c2)CC(c2ccc(Br)s2)NS1(=O)=O (stereo not drawn) [HBV-CSU-257, Cis-N-(3-Bromo-4-fluorophenyl)-5-(5-bromothiophen-2-yl)-2-methyl-1,2,6-thiadiazinane-3-carboxamide 1,1-dioxide]",> 6.00
4,"CN1C(C(=O)Nc2ccc(F)c(Cl)c2)CC(c2cccc(C(F)(F)F)c2)NS1(=O)=O (stereo not drawn) [HBV-CSU-259, Cis-N-(3-chloro-4-fluorophenyl)-2-methyl-5-(3-(trifluoromethyl)phenyl)-1,2,6-thiadiazinane-3-carboxamide 1,1-dioxide]",> 6.00
5,"CN1C(C(=O)Nc2ccc(F)c(Cl)c2)CC(c2cc(Cl)c(O)c(Cl)c2)NS1(=O)=O (stereo not drawn) [HBV-CSU-260, Cis-N-(3-Chloro-4-fluorophenyl)-5-(3,5-dichloro-4-hydroxyphenyl)-2-methyl-1,2,6-thiadiazinane-3-carboxamide 1,1-dioxide]",> 6.00
6,"CN1[C@H](C(=O)Nc2ccc(F)c(Cl)c2)C[C@H](c2cccc(Cl)c2)NS1(=O)=O [HBV-CSU-261-ISO-I, Cis-N-(3-Chloro-4-fluorophenyl)-5-(3-chlorophenyl)-2-methyl-1,2,6-thiadiazinane-3-carboxamide 1,1-dioxide]",> 6.00
7,"CN1[C@@H](C(=O)Nc2ccc(F)c(Cl)c2)C[C@@H](c2cccc(Cl)c2)NS1(=O)=O [HBV-CSU-261-ISO-II, Cis-N-(3-Chloro-4-fluorophenyl)-5-(3-chlorophenyl)-2-methyl-1,2,6-thiadiazinane-3-carboxamide 1,1-dioxide]",< 5.30
8,"CN1C(C(=O)Nc2ccc(F)c(Cl)c2)CC(c2ccc(Cl)cc2)NS1(=O)=O (stereo not drawn) [HBV-CSU-265, Cis-N-(3-Chloro-4-fluorophenyl)-5-(4-chlorophenyl)-2-methyl-1,2,6-thiadiazinane-3-carboxamide 1,1-dioxide]",> 6.00
9,CN1[C@@H](C(=O)Nc2ccc(F)c(Cl)c2)C[C@@H](c2ccc(Cl)cc2)NS1(=O)=O [HBV-CSU-265-ISO-II],< 5.30
10,CN1[C@H](C(=O)Nc2ccc(F)c(Cl)c2)C[C@H](c2ccc(Cl)cc2)NS1(=O)=O [HBV-CSU-265-ISO-I],> 6.00
11,"CN1[C@H](C(=O)Nc2ccc(F)c(Cl)c2)C[C@H](c2ccc(-c3cn(C)cn3)s2)NS1(=O)=O [HBV-CSU-266-ISO-I, (3S,5R)-N-(3-chloro-4-fluorophenyl)-2-methyl-5-(5-(1-methyl-1H-imidazol-4-yl)thiophen-2-yl)-1,2,6-thiadiazinane-3-carboxamide 1,1-dioxide]",> 6.00
12,"CN1[C@@H](C(=O)Nc2ccc(F)c(Cl)c2)C[C@@H](c2ccc(-c3cn(C)cn3)s2)NS1(=O)=O [HBV-CSU-266-ISO-II, Cis-N-(3-Chloro-4-fluorophenyl)-2-methyl-5-(5-(1-methyl-1H-imidazol-4-yl)thiophen-2-yl)-1,2,6-thiadiazinane-3-carboxamide 1,1-dioxide]",5.30 to 6.00
13,"CN1[C@@H](C(=O)Nc2ccc(F)c(Cl)c2)C[C@H](c2ccc(-c3cn(C)cn3)s2)NS1(=O)=O [HBV-CSU-266-Trans-ISO-I, (3R,5R)-N-(3-chloro-4-fluorophenyl)-2-methyl-5-(5-(1-methyl-1H-imidazol-4-yl)thiophen-2-yl)-1,2,6-thiadiazinane-3-carboxamide 1,1-dioxide]",> 6.00
14,"CN1[C@H](C(=O)Nc2ccc(F)c(Cl)c2)C[C@@H](c2ccc(-c3cn(C)cn3)s2)NS1(=O)=O [HBV-CSU-266-Trans-ISO-II, (3S,5S)-N-(3-chloro-4-fluorophenyl)-2-methyl-5-(5-(1-methyl-1H-imidazol-4-yl)thiophen-2-yl)-1,2,6-thiadiazinane-3-carboxamide 1,1-dioxide]",5.30 to 6.00
15,"CN1[C@H](C(=O)Nc2ccc(F)c(Cl)c2)C[C@H](c2ccc(-c3cncn3C)s2)NS1(=O)=O [HBV-CSU-267-ISO-I, Cis-N-(3-Chloro-4-fluorophenyl)-2-methyl-5-(5-(1-methyl-1H-imidazol-5-yl)thiophen-2-yl)-1,2,6-thiadiazinane-3-carboxamide 1,1-dioxide]",> 6.00
16,"CN1[C@@H](C(=O)Nc2ccc(F)c(Cl)c2)C[C@@H](c2ccc(-c3cncn3C)s2)NS1(=O)=O [HBV-CSU-267-ISO-II, Cis-N-(3-Chloro-4-fluorophenyl)-2-methyl-5-(5-(1-methyl-1H-imidazol-5-yl)thiophen-2-yl)-1,2,6-thiadiazinane-3-carboxamide 1,1-dioxide]",> 6.00
